Test results as given in patent USRE37781E1, “Substituted cyclic carbonyls and derivatives thereof useful as retroviral protease inhibitors” (DuPont Pharmaceuticals Company, priority 1991, dated 2002).
Read-outs that look alike come from different tables or passages of the source.

Molecular target: single-chain tethered dimer of HIV protease (Human immunodeficiency virus 1, UniProt P04585)
Test: biochemical
Assay type: biochemical
Set-up: fused on or other part: A second copy of the same protease unit is joined to the first by a short peptide tether, giving one polypeptide
Protocol: HIV Protease Inhibition Assay—HPLC Method
Active protease was prepared as described therein by extraction with 67% acetic acid, dilution 33-fold with water, dialysis against water and then against a “refolding buffer” consisting of 20 mM MES, 1 mM dithiothreitol and 10% glycerol. Protease was stored as a stock preparation at 10 uM in refolding buffer.
Substrate: Peptide of sequence: aminobenzoyl-Ala-Thr-His-Gln-Val-Tyr-Phe(NO2)-Val-Arg-Lys-Ala containing p-nitrophenylalanine, was prepared by solid phase synthesis as previously described Cheng et al., op.cit. Stock solutions of 2 mM substrate were prepared in DMSO.
Inhibitory compounds were dissolved in sufficient DMSO to make 3 mM stock solutions. All further dilutions were prepared in “assay buffer”: 1M NaCl, 50 mM MES, pH 5.5, 1 mM EDTA, 1 mM DTT, […] glycerol.
Enzyme reaction: In a 2 ml screw-cap centrifuge tube were added 50 ul protease (final concentration 0.25 nM) and 0.1 ml inhibitory compound (final concentration […]). After 15 min preincubation at room temperature, the reaction was started with the addition of 0.05 ml substrate (final concentration 5 uM). Incubation was carried out at 30 C. for 1 hr. The reaction was stopped with 1 ml 0.1M ammonium hydroxide.
HPLC measurement of product formation: The product (aminobenzoyl-Ala-Thr-His-Gln-Val-Tyr) was separated from substrate on a Pharmacia MonoQ anion exchange column. The injection volume was 0.2 ml. The mobile phases were: A (20 mM trisHCl, pH 9.0, 0.02% sodium Azide, 10% acetonitrile), B (20 mM tris HCl, pH 9.0, 0.02% sodium azide, 0.5M ammonium formate, 10% acetonitrile). The mobile phases were pumped at 1 ml/min, with a gradient from 0 to 30% B in 5 min, 100% B for 4 min to wash the column, and a re-equilibration for 4 min. The retention time of the product was 3.6 min. Detection with a Shimadzu model RF535 fluorescence monitor was at 330 nm (excitation) and 430 (emission).

[1] = read-out: HPLC K1, HIV protease inhibition, HPLC method, Table 2d
[2] = read-out: HPLC Ki, Table 1d, lower part
[3] = Table 2d, class symbols, read-out: HPLC K1

CCC(CC)CC1C(O)C(O)C(CC(CC)CC)N(Cc2ccccc2)C(=O)N1Cc1ccccc1 (centres unmarked) [Example 16AM]
Ki (Table 2e, read-out: K4 HPLC): 10 to 1000 nM

COc1ccccc1CC1C(O)C(O)C(Cc2ccccc2OC)N(CC2CC2)C(=O)N1CC1CC1 (centres unmarked) [Example 16S]
Ki (Table 2e, read-out: K4 HPLC): 10 to 1000 nM

O=C1N(CCCCCn2cccn2)C(Cc2ccccc2)C(O)C(O)C(Cc2ccccc2)N1CCCCCn1cccn1 (centres unmarked) [15FL]
Ki [1]: > 1000 nM

CSc1ccc(CC2C(O)C(O)C(Cc3ccc(SC)cc3)N(Cc3ccccc3)C(=O)N2Cc2ccccc2)cc1 (centres unmarked) [Example 16Q]
Ki (Table 2e, read-out: K4 HPLC): < 10 nM

COC1C(OC)C(Cc2ccccc2)N(CC2CC2)C(=O)N(CC2CC2)C1Cc1ccccc1 (centres unmarked) [Example 7AF]
Ki [2]: > 1000 nM

O=C1N(CC2CC2(c2ccccc2)c2ccccc2)C(Cc2ccccc2)C(O)C(O)C(Cc2ccccc2)N1CC1CC1(c1ccccc1)c1ccccc1 (centres unmarked) [Example 14F]
Ki [3]: 10 to 1000 nM

COC(=O)c1ccc(CN2C(=O)N(Cc3ccc(C(=O)OC)cc3)C(Cc3ccc(OC)cc3)C(O)C(O)C2Cc2ccc(OC)cc2)cc1 (centres unmarked) [20AI]
Ki (Table 2i, read-out: HPLC Ki): > 1000 nM

C=CCN1C(=O)N(CCCC)C(C)C(O)C(O)C1C (centres unmarked) [Example 16F]
Ki (Table 2e, read-out: K4 HPLC): > 1000 nM

O=C1N(CC2CC2)C(Cc2ccccc2)C(=NO)C(O)C(Cc2ccccc2)N1CC1CC1 (centres unmarked) [Example 7AB]
Ki [2]: > 1000 nM

CC(N)C(=O)Nc1cccc(CN2C(=O)N(Cc3cccc(NC(=O)C(C)N)c3)C(Cc3ccccc3)C(O)C(O)C2Cc2ccccc2)c1 (centres unmarked) [15U]
Ki [3]: < 10 nM

O=C1N(Cc2ccccc2)C(Cc2ccc(OCCO)cc2)C(O)C(O)C(Cc2ccc(OCCO)cc2)N1Cc1ccccc1 (centres unmarked) [20AM]
Ki (Table 2i, read-out: HPLC Ki): < 10 nM

COc1ccc(CC2C(O)C(O)C(Cc3ccc(OC)cc3)N(Cc3ccc(CO)cc3)C(=O)N2Cc2ccc(CO)cc2)cc1 (centres unmarked) [20AJ]
Ki (Table 2i, read-out: HPLC Ki): < 10 nM

O=C1N(Cc2ccccc2)C(CCc2ccccc2)C(O)C(O)C(CCc2ccccc2)N1Cc1ccccc1 (centres unmarked) [Example 16A]
Ki (read-out: K4 HPLC, Table 2e): 10 to 1000 nM

O=C1N(Cc2ccccc2)C(CCCCCO)C(O)C(O)C(CCCCCO)N1Cc1ccccc1 (centres unmarked) [Example 16AN]
Ki (Table 2e, read-out: K4 HPLC): > 1000 nM

O=C1NC(Cc2ccccc2)C(O)C(O)C(Cc2ccccc2)N1Cc1ccc2[nH]nnc2c1 (centres unmarked) [15DM]
Ki (Table 2d, HIV protease inhibition, HPLC method, read-out: HPLC K1): < 10 nM

O=C1N(Cc2ccccc2)C(Cc2ccccc2)C(O)C(O)C(Cc2ccccc2)N1Cc1ccccc1 (centres unmarked) [Example 13Q]
Ki (read-out: HPLC K1, Table 2d, class symbols): > 1000 nM

C=CC(=C)CN1C(=O)N(CC(=C)C=C)C(Cc2ccccc2)C(O)C(O)C1Cc1ccccc1 (centres unmarked) [Example 15FX]
Ki [1]: 10 to 1000 nM

C=CCN1C(=O)N(CC=C)C(Cc2ccc(OC)cc2)C(O)C(O)C1Cc1ccc(OC)cc1 (centres unmarked) [20AL]
Ki (Table 2i, read-out: HPLC Ki): < 10 nM

C=CCN1C(=O)N(CC=C)C(CCc2ccccc2)C(O)C(O)C1CCc1ccccc1 (centres unmarked) [Example 16B]
Ki (read-out: K4 HPLC, Table 2e): > 1000 nM

CC(C)CC1C(O)C(O)C(CC(C)C)N(CC2CC2)C(=O)N1CC1CC1 (centres unmarked) [Example 16J]
Ki (Table 2e, read-out: K4 HPLC): < 10 nM

O=C1N(CCCCCN2CCOCC2)C(Cc2ccccc2)C(O)C(O)C(Cc2ccccc2)N1CCCCCN1CCOCC1 (centres unmarked) [15FM]
Ki [1]: > 1000 nM

C=CCOC1C(O)C(Cc2ccccc2)N(CC2CC2)C(=O)N(CC2CC2)C1Cc1ccccc1 (centres unmarked) [Example 7AJ]
Ki [2]: 10 to 1000 nM

O=C1NC(Cc2ccccc2)C(O)C(O)C(Cc2ccccc2)N1Cc1ccco1 (centres unmarked) [Example 15FV]
Ki (HIV protease inhibition, HPLC method, Table 2d, read-out: HPLC K1): < 10 nM

C=CCN1C(=O)N(CC=C)C(C(C)C)C(O)C(O)C1C(C)C (centres unmarked) [Example 16C]
Ki (read-out: K4 HPLC, Table 2e): 10 to 1000 nM

CCCCC1C(O)C(O)C(CCCC)N(Cc2ccccc2)C(=O)N1Cc1ccccc1 (centres unmarked) [Example 16AG]
Ki (Table 2e, read-out: K4 HPLC): > 1000 nM

O=C(NC(Cc1ccccc1)C(=O)Nc1cccc(CN2C(=O)N(Cc3cccc(NC(=O)C(Cc4ccccc4)NC(=O)OCc4ccccc4)c3)C(Cc3ccccc3)C(O)C(O)C2Cc2ccccc2)c1)OCc1ccccc1 (centres unmarked) [15T]
Ki [3]: < 10 nM

CC(C)CC1C(O)C(O)C(CC(C)C)N(Cc2ccccc2)C(=O)N1Cc1ccccc1 (centres unmarked) [Example 16AD]
Ki (read-out: K4 HPLC, Table 2e): < 10 nM

CON=C1C(O)C(Cc2ccccc2)N(CC2CC2)C(=O)N(CC2CC2)C1Cc1ccccc1 (centres unmarked) [Example 7AC]
Ki [2]: 10 to 1000 nM

CCOC(=O)COc1cccc(CC2C(O)C(O)C(Cc3cccc(OCC(=O)OCC)c3)N(CC3CC3)C(=O)N2CC2CC2)c1 (centres unmarked) [20AV]
Ki (Table 2i, read-out: HPLC Ki): 10 to 1000 nM
